Measured values taken from ChEMBL document CHEMBL1146673, “Inhibition of ICAM-1/LFA-1-mediated heterotypic T-cell adhesion to epithelial cells: design of ICAM-1 cyclic peptides” (2004).

What follows are substances tested on T-cell (assay: Ability of compound to inhibit the T-cell adhesion at 200 uM in cell adhesion assay).
Format: functional, Homo sapiens
H-VILPRG-OH gave a T-cell binding of 32%. In the case of H-KVILPR-OH, the T-cell binding was 49%. For H-ILPRGG-OH, the T-cell binding was 46%. With H-VILARG-OH the T-cell binding was 62%. For H-PRGGSV-OH, the T-cell binding was 25%. Work on H-VIAPRG-OH yielded a T-cell binding of 46%. For H-VALPRG-OH, the T-cell binding was 71%. For H-VILPRA-OH, the T-cell binding was 68%. With H-PSKVIL-OH the T-cell binding was 44%. Work on H-LPRGGS-OH yielded a T-cell binding of 37%. H-AILPRG-OH was tested, and the T-cell binding was 53%.
